Data published in patent US10308644B2, “Heterocyclic compounds as immunomodulators” (Incyte Corporation, priority 2016, dated 2019).

These compounds were tested against PD-1/PD-L1 (Homo sapiens (Human), UniProt Q9NZQ7) (assay: PD-1/PD-L1 Homogeneous Time-Resolved Fluorescence (HTRF) Binding Assay). Conditions: recombinant human PD-1 (3 nM) and PD-L1 (10 nM), 25° C., PBS pH 7.4.
Method in brief: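 Fc-tagged human PD-1 (25-167, 3 nM) and His-tagged PD-L1 (19-238, 10 nM) preincubated with inhibitor 40 min in PBS pH 7.4, 0.05% Tween-20, 0.1% BSA, 1% DMSO, 25 °C. Binding detected by HTRF (Eu anti-IgG/APC anti-His, 665/620 nm) after 60 min; IC50 from percent control activity.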

Chain of PD-1/PD-L1 (Q9NZQ7 19-238): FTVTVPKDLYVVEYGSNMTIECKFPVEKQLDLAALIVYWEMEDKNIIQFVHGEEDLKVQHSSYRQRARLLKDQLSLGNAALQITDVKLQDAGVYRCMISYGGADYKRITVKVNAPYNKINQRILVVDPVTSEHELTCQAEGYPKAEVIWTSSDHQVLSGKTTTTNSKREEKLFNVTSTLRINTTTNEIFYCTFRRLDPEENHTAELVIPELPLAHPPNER

IC50, ≤ 10 nM:
Cc1c(Nc2nccc3cc(CN4CC[C@@H](O)C4)cnc23)cccc1-c1cccc(-c2nc3cc(CNCCc4ccc(C(=O)O)cc4)cc(C#N)c3o2)c1C [Example 171, (R)-4-(2-((7-cyano-2-(3′-(3-((3-hydroxypyrrolidin-1-yl)methyl)-1,7-naphthyridin-8-ylamino)-2,2′-dimethylbiphenyl-3-yl)benzo[d]oxazol-5-yl)methylamino)ethyl)benzoic acid]
Cc1c(-c2nc3c(o2)CN(C(=O)CN(C)C)C3)cccc1-c1cccc(-c2nc3cc(CN4CC[C@@H](C(=O)O)C4)cc(C#N)c3o2)c1C [Example 122, (R)-1-((7-cyano-2-(3′-(5-(dimethylglycyl)-5,6-dihydro-4H-pyrrolo[3,4-d]oxazol-2-yl)-2,2′-dimethyl-[1,1′-biphenyl]-3-yl)benzo[d]oxazol-5-yl)methyl)pyrrolidine-3-carboxylic acid]
Cc1c(Nc2nccc3cc(CNC[C@H](C)O)cnc23)cccc1-c1cccc(-c2nc3cc(CN4CC[C@@H](C(=O)O)C4)cc(C#N)c3o2)c1C [Example 146, (R)-1-((7-cyano-2-(3′-((3-((((S)-2-hydroxypropyl)amino)methyl)-1,7-naphthyridin-8-yl)amino)-2,2′-dimethyl-[1,1′-biphenyl]-3-yl)benzo[d]oxazol-5-yl)methyl)pyrrolidine-3-carboxylic acid]
Cc1c(Nc2nccc3cc(CNCCO)cnc23)cccc1-c1cccc(-c2nc3cc(CN4CCCC[C@H]4C(=O)O)cc(Cl)c3o2)c1C [Example 3, (S)-1-((7-chloro-2-(3′-((3-(((2-hydroxyethyl)amino)methyl)-1,7-naphthyridin-8-yl)amino)-2,2′-dimethyl-[1,1′-biphenyl]-3-yl)benzo[d]oxazol-5-yl)methyl)piperidine-2-carboxylic acid]
Cc1c(-c2nc3cc(CN4CC[C@@](C)(C(=O)O)C4)cc(C#N)c3o2)cccc1-c1cccc(Nc2nccc3cc(CN4CC[C@H](O)C4)cnc23)c1Cl [Example 34, (R)-1-((2-(2′-chloro-3′-(3-(((S)-3-hydroxypyrrolidin-1-yl)methyl)-1,7-naphthyridin-8-ylamino)-2-methylbiphenyl-3-yl)-7-cyanobenzo[d]oxazol-5-yl)methyl)-3-methylpyrrolidine-3-carboxylic acid]
CCN(C)CC(=O)N1Cc2nc(-c3cccc(-c4cccc(-c5nc6cc(CN7CC[C@@H](C(=O)O)C7)cc(C#N)c6o5)c4C)c3C)oc2C1 [Example 241, (R)-1-((7-cyano-2-(3′-(5-(N-ethyl-N-methylglycyl)-5,6-dihydro-4H-pyrrolo[3,4-d]oxazol-2-yl)-2,2′-dimethyl-[1,1′-biphenyl]-3-yl)benzo[d]oxazol-5-yl)methyl)pyrrolidine-3-carboxylic acid]
Cc1c(-c2nc3cc(CN4CC[C@H](C(=O)O)C4)cc(C#N)c3o2)cccc1-c1cccc(-n2cc3c(n2)CCN(C)C3)c1Cl [Example 54, (S)-1-((2-(2′-chloro-2-methyl-3′-(5-methyl-4,5,6,7-tetrahydro-2H-pyrazolo[4,3-c]pyridin-2-yl)biphenyl-3-yl)-7-cyanobenzo[d]oxazol-5-yl)methyl)pyrrolidine-3-carboxylic acid]
Cc1c(Nc2ncnc3cc(CN4CCCC4)cnc23)cccc1-c1cccc(-c2nc3cc(CN4CC[C@@H](C(=O)O)C4)cc(C#N)c3o2)c1C [Example 209, (R)-1-((7-cyano-2-(2,2′-dimethyl-3′-(7-(pyrrolidin-1-ylmethyl)pyrido[3,2-d]pyrimidin-4-ylamino)biphenyl-3-yl)benzo[d]oxazol-5-yl)methyl)pyrrolidine-3-carboxylic acid]
Cc1c(Nc2nccc3cc(CN4CC[C@@H](O)C4)cnc23)cccc1-c1cccc(-c2nc3cc(CN4CC[C@H](C(=O)O)C4)cc(Cl)c3o2)c1C [Example 19, (S)-1-((7-chloro-2-(3′-(3-(((R)-3-hydroxypyrrolidin-1-yl)methyl)-1,7-naphthyridin-8-ylamino)-2,2′-dimethylbiphenyl-3-yl)benzo[d]oxazol-5-yl)methyl)pyrrolidine-3-carboxylic acid]
Cc1c(Nc2nccc3cc(CN4CC[C@@H](O)C4)cnc23)cccc1-c1cccc(-c2nc3cc(CN4CC5(C(=O)O)CC4C5)cc(C#N)c3o2)c1C [Example 178, (R)-2-((7-cyano-2-(3′-(3-((3-hydroxypyrrolidin-1-yl)methyl)-1,7-naphthyridin-8-ylamino)-2,2′-dimethylbiphenyl-3-yl)benzo[d]oxazol-5-yl)methyl)-2-aza bicyclo[2.1.1]hexane-4-carboxylic acid]
Cc1c(-c2nc3cc(CN4CCC(C(=O)O)CC4)cc(C#N)c3o2)cccc1-c1cccc(NC(=O)c2nc3c(n2C)CCN(C)C3)c1Cl [Example 89, 1-((2-(2′-chloro-3′-(1,5-dimethyl-4,5,6,7-tetrahydro-1H-imidazo[4,5-c]pyridine-2-carboxamido)-2-methylbiphenyl-3-yl)-7-cyanobenzo[d]oxazol-5-yl)methyl)piperidine-4-carboxylic acid]
Cc1c(-c2nc3cc(CN4CC5(CC(C(=O)O)C5)C4)cc(C#N)c3o2)cccc1-c1cccc(-c2nc3c(s2)CN(C(=O)CN2CC[C@@H](O)C2)C3)c1C [Example 234, 2-((7-cyano-2-(3′-(5-(2-((R)-3-hydroxypyrrolidin-1-yl)acetyl)-5,6-dihydro-4H-pyrrolo[3,4-d]thiazol-2-yl)-2,2′-dimethylbiphenyl-3-yl)benzo[d]oxazol-5-yl)methyl)-2-azaspiro[3.3]heptane-6-carboxylic acid]
Cc1c(-c2nc3cc(CN4CC[C@@](C)(C(=O)O)C4)cc(C#N)c3o2)cccc1-c1cccc(NC(=O)c2nc3c(n2C)CCN(C)C3)c1Cl [Example 88, (R)-1-((2-(2′-chloro-3′-(1,5-dimethyl-4,5,6,7-tetrahydro-1H-imidazo[4,5-c]pyridine-2-carboxamido)-2-methylbiphenyl-3-yl)-7-cyanobenzo[d]oxazol-5-yl)methyl)-3-methylpyrrolidine-3-carboxylic acid]
Cc1c(-c2nc3cc(CN4CC5(C(=O)O)CC4C5)cc(C#N)c3o2)cccc1-c1cccc(-c2nc3c(s2)CN(C(=O)CN(C)C)C3)c1C [Example 235, 2-((7-cyano-2-(3′-(5-(2-(dimethylamino)acetyl)-5,6-dihydro-4H-pyrrolo[3,4-d]thiazol-2-yl)-2,2′-dimethylbiphenyl-3-yl)benzo[d]oxazol-5-yl)methyl)-2-azabicyclo[2.1.1]hexane-4-carboxylic acid]
Cc1c(-c2nc3cc(CN4CC[C@@H](C(=O)O)C4)cc(C#N)c3o2)cccc1-c1cccc(-n2cc3c(n2)CN(C)C3)c1Cl [Example 55, (R)-1-((2-(2′-chloro-2-methyl-3′-(5-methyl-5,6-dihydropyrrolo[3,4-c]pyrazol-2(4H)-yl)biphenyl-3-yl)-7-cyanobenzo[d]oxazol-5-yl)methyl)pyrrolidine-3-carboxylic acid]
Cc1c(-c2nc3cc(CN4CC[C@@](C)(C(=O)O)C4)cc(C#N)c3o2)cccc1-c1cccc(-c2nc3c(s2)CN(C(=O)CN2CC(O)C2)C3)c1C [Example 227, (R)-1-((7-cyano-2-(3′-(5-(2-(3-hydroxyazetidin-1-yl)acetyl)-5,6-dihydro-4H-pyrrolo[3,4-d]thiazol-2-yl)-2,2′-dimethylbiphenyl-3-yl)benzo[d]oxazol-5-yl)methyl)-3-methylpyrrolidine-3-carboxylic acid]
